Measured values reported in the kinase profiling compilation of Christmann-Franck et al. (2016).

Key:
Assay in all cases: radiometric filter-binding kinase assay, Kinase HotSpot
Settings in all cases: compound 0.5 µM; ATP 10 µM
[1] = molecular target: CDK1 CCNA2 (human) (UniProt P06493+P20248)
[2] = molecular target: CDK1 CCNB1 (human) (UniProt P06493+P14635)
[3] = molecular target: CDK2 CCNA2 (human) (UniProt P24941+P20248)
[4] = molecular target: CDK2 CCNE1 (human) (UniProt P24941+P24864)
[5] = molecular target: CDK3 CCNE1 (human) (UniProt Q00526+P24864)
Sequence of CDK3 CCNE1 (human) (P24864 whole entry, looked up): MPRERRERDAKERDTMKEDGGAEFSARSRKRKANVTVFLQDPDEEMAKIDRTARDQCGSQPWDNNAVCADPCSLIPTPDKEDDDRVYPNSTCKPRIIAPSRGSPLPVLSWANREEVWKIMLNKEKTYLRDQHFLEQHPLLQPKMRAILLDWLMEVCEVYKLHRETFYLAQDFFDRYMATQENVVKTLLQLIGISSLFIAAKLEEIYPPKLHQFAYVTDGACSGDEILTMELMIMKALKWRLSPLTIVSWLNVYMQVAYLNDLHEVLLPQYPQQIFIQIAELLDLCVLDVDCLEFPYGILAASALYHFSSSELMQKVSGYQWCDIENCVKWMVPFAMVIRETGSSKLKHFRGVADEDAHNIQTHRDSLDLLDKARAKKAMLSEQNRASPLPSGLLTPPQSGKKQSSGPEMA
Sequence of CDK3 CCNE1 (human) (Q00526 whole entry, looked up): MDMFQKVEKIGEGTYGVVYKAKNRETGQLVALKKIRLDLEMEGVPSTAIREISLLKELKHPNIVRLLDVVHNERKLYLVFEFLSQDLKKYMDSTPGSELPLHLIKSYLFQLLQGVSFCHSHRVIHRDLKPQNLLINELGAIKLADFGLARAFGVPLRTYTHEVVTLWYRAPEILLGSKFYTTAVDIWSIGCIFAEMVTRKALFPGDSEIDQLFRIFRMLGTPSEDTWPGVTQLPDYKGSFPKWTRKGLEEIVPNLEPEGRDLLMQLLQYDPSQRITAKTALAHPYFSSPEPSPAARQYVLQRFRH

[6] = molecular target: CDK4 CCND1 (human) (UniProt P24385+P11802)
[7] = molecular target: CDK4 CCND3 (human) (UniProt P30281+P11802)
[8] = molecular target: CDK5 CDK5R1 p25 (human) (UniProt Q00535+Q15078)
[9] = molecular target: CDK5 CDK5R1 p35 (human) (UniProt Q00535+Q15078)
[10] = molecular target: CDK6 CCND1 (human) (UniProt Q00534+P24385)
Sequence of CDK6 CCND1 (human) (P24385 whole entry, looked up): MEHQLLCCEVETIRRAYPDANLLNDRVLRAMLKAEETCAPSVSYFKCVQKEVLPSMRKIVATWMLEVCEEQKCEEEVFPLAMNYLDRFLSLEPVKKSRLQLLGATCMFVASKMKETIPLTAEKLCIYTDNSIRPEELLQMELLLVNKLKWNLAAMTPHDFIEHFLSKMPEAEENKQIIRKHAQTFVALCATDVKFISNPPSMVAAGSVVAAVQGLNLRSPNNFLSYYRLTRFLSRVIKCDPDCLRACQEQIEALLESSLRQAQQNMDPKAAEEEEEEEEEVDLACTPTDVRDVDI
Sequence of CDK6 CCND1 (human) (Q00534 whole entry, looked up): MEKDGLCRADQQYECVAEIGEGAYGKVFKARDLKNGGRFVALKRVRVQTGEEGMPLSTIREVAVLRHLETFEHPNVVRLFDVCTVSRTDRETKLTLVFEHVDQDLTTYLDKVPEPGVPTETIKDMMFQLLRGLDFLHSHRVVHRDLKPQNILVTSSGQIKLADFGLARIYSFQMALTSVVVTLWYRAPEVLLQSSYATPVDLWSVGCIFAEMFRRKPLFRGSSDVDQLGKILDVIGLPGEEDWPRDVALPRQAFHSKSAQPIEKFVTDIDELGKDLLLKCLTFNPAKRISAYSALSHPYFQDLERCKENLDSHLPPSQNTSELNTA

[11] = molecular target: CDK6 CCND3 (human) (UniProt P30281+Q00534)
Sequence of CDK6 CCND3 (human) (P30281 whole entry, looked up): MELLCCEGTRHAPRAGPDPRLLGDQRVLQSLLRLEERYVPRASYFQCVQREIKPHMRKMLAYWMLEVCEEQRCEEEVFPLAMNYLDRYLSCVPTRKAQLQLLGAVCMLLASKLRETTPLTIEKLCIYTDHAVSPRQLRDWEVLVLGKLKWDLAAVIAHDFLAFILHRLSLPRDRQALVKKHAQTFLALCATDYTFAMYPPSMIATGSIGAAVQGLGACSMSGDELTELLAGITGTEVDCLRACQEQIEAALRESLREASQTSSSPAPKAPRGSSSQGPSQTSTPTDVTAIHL
Sequence of CDK6 CCND3 (human) (Q00534 whole entry, looked up): as the sequence (Q00534 whole entry, looked up) above

[12] = molecular target: CDK7 CCNH MNAT1 (human) (UniProt P50613+P51948+P51946)
[13] = molecular target: CDK9 CCNK (human) (UniProt O75909+P50750)
[14] = molecular target: CDK9 CCNT1 (human) (UniProt P50750+O60563)
Sequence of CDK9 CCNT1 (human) (O60563 whole entry, looked up): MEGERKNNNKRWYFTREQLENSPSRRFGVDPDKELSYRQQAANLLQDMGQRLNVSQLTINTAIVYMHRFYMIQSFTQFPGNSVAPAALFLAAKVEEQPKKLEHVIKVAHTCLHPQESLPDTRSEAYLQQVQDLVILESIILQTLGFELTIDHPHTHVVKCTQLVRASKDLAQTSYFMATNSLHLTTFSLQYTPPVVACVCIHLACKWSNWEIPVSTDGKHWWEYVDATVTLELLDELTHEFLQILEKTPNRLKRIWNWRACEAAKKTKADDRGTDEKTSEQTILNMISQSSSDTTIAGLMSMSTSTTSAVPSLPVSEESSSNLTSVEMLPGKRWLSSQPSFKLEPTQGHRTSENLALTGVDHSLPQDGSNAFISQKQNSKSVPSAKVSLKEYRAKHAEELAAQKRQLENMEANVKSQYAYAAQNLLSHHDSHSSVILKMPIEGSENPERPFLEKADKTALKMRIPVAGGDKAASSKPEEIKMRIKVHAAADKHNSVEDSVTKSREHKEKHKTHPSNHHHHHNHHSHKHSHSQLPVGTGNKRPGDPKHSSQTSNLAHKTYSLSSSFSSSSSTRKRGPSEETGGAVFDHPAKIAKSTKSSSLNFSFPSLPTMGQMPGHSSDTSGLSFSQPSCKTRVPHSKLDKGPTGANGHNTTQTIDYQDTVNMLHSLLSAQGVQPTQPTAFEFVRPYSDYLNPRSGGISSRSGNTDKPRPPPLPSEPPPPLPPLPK
Sequence of CDK9 CCNT1 (human) (P50750 whole entry, looked up): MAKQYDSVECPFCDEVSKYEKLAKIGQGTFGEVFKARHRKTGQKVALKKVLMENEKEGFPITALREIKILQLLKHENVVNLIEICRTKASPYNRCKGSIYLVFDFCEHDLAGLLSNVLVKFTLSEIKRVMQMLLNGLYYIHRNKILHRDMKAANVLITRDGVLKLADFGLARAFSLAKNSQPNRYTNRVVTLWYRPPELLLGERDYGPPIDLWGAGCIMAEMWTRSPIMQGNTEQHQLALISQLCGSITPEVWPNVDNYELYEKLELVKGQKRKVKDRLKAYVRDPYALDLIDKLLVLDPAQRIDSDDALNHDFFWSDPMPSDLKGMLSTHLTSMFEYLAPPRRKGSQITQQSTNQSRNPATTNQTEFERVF

[15] = molecular target: DYRK1B (human) (UniProt Q9Y463)
Sequence of DYRK1B (human) (Q9Y463 whole entry, looked up): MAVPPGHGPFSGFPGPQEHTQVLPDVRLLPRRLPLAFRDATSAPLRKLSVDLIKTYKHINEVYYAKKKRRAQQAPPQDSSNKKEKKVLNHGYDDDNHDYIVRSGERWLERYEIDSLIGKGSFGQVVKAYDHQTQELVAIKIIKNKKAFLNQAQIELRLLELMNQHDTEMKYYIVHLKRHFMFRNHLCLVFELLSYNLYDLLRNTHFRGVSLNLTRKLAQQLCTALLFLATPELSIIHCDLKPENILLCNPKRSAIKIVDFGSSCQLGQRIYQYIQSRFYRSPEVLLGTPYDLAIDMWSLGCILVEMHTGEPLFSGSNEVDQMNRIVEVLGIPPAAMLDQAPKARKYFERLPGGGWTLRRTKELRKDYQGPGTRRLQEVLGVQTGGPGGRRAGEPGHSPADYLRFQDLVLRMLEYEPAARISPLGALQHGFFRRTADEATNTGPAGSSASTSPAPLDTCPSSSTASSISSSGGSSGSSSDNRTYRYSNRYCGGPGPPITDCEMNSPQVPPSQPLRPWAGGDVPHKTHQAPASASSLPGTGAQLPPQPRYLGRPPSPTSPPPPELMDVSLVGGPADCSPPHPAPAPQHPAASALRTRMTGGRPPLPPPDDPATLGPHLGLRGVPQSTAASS

[16] = molecular target: LTK (human) (UniProt P29376)
[17] = molecular target: MAP3K7 TAB1 (human) (UniProt O43318+Q15750)
Sequence of MAP3K7 TAB1 (human) (O43318 whole entry, looked up): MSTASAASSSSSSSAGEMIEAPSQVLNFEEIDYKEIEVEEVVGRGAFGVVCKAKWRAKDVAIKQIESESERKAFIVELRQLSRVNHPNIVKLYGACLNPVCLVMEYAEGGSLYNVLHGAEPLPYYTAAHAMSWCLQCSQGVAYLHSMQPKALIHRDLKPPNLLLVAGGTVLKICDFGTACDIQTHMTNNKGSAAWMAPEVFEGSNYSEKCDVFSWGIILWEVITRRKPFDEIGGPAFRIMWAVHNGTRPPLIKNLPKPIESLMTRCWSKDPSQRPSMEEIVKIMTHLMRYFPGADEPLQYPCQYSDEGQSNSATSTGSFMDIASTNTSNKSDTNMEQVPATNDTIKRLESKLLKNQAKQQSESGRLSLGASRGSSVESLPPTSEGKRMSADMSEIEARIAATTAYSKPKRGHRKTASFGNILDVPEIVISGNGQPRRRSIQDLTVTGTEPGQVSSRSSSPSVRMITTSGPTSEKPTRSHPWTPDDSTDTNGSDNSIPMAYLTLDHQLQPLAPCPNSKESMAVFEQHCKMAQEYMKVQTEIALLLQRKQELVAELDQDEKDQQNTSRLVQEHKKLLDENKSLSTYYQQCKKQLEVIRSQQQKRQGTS
Sequence of MAP3K7 TAB1 (human) (Q15750 whole entry, looked up): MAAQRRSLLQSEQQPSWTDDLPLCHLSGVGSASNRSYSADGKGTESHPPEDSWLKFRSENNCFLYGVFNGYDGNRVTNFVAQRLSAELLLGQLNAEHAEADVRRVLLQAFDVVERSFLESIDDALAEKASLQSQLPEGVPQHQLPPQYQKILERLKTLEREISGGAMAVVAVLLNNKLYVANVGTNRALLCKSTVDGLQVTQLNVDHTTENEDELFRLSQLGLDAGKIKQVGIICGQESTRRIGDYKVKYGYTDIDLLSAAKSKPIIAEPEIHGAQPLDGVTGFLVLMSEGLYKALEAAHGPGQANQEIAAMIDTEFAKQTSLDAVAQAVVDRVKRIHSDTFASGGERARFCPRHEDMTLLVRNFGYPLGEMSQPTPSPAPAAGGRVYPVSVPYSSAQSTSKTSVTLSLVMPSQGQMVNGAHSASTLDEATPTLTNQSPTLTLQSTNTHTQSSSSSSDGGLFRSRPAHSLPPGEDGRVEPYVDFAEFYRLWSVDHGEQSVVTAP

[18] = molecular target: PRKCH (human) (UniProt P24723)
[19] = molecular target: STK33 (human) (UniProt Q9BYT3)
[20] = tested on: SGK1 (human), O00141 [S422D]
Sequence of SGK1 (human), O00141 [S422D] (O00141 whole entry S422D, looked up): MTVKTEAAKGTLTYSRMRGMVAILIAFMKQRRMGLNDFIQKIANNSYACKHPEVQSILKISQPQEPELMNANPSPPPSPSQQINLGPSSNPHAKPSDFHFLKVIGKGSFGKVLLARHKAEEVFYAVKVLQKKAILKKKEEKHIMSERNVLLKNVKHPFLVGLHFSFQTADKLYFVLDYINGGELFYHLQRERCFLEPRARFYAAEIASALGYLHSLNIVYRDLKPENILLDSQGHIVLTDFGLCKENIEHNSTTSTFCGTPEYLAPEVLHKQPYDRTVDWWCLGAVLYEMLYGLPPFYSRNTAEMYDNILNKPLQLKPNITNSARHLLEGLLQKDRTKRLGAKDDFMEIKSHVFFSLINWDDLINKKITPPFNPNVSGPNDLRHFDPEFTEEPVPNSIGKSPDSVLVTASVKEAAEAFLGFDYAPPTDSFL

## CC(C)(C)n1nc(Cc2cccc3ccccc23)c2c(N)ncnc21
[1]
  residual activity: 94.8%
[2]
  residual activity: 107%
[3]
  residual activity: 99.4%
[4]
  residual activity: 89.6%
[5]
  residual activity: 87.8%
[6]
  residual activity: 96.7%
[7]
  residual activity: 95.8%
[8]
  residual activity: 109%
[9]
  residual activity: 95.6%
[10]
  residual activity: 98.6%
[11]
  residual activity: 97.3%
[12]
  residual activity: 100%
[13]
  residual activity: 81.4%
[14]
  residual activity: 102%
[15]
  residual activity: 98.6%
[16]
  residual activity: 98.2%
[17]
  residual activity: 99%
[18]
  residual activity: 92.1%
[19]
  residual activity: 99.7%

## O=C(NC(NC(=S)Nc1ccc(F)c([N+](=O)[O-])c1)C(Cl)(Cl)Cl)C(c1ccccc1)c1ccccc1 (stereo unspecified)
[20]
  residual activity: 93.1%

## O=C(Nc1ccc(Cl)cc1)c1ccccc1NCc1ccncc1
[20]
  residual activity: 96%

## CN(C)S(=O)(=O)c1ccc2c(c1)/C(=C/c1cc3c([nH]1)CCCC3)C(=O)N2
[20]
  residual activity: 105%

## CC#CC(=O)Nc1cc2c(Nc3ccc(F)c(Cl)c3)ncnc2cn1
[20]
  residual activity: 95.6%

## C#Cc1cccc(Nc2ncnc3cc(OCCOC)c(OCCOC)cc23)c1
[20]
  residual activity: 122%

## COc1ccc2c(c1)/C(=C/c1cnc[nH]1)C(O)=N2
[20]
  residual activity: 71.5%

## CC(C)[C@H](CO)Nc1nc(Nc2cccc(Cl)c2)c2ncn(C(C)C)c2n1
[20]
  residual activity: 99.1%

## COc1ccc(S(=O)(=O)N(CCO)c2ccccc2CN(C)C/C=C/c2ccc(Cl)cc2)cc1
[20]
  residual activity: 103%

## Nc1nc(Nc2ccc(S(N)(=O)=O)cc2)nn1C(=O)c1c(F)cccc1F
[20]
  residual activity: 93%

## O=C1Nc2ccc(Cl)cc2/C1=C/c1cc(Cl)c(O)c(Cl)c1
[20]
  residual activity: 91.3%

## Ic1cccc(CSc2nnc(-c3ccncc3)o2)c1
[20]
  residual activity: 99%

## c1ccc2c(-c3ccncc3)c[nH]c2c1
[20]
  residual activity: 93.8%

## O=C1Nc2cc(Br)ccc2/C1=C1/Nc2ccccc2/C1=N\O
[20]
  residual activity: 60.9%

## Oc1ccc(-c2nc(-c3ccc(F)cc3)c(-c3ccncc3)[nH]2)cc1
[20]
  residual activity: 101%

## COc1ccc(-c2cnc3c(-c4ccsc4)cnn3c2)cc1
[20]
  residual activity: 81.8%

## Cc1nc(-c2ccccc2)c(-c2ccncc2)o1
[20]
  residual activity: 99.3%

## C[C@@H]1CCN(C(=O)CC#N)C[C@@H]1N(C)c1ncnc2[nH]ccc12
[20]
  residual activity: 123%
